Reference: patent US20240217966A1, “PHARMACEUTICAL COMPOSITION CONTAINING GLP-1 RECEPTOR AGONIST HAVING FUSED RING” (Shionogi & Co., Ltd., priority 2021, published 2024)
Read-outs that look alike come from different tables or passages of the source.

Target: T1, Human GLP-1 receptor (Homo sapiens, UniProt P43220)
T1 construct: expressed in transfected cells
Assay: Measurement of GLP-1 receptor agonist activity (cAMP assay)
Format: cell-based
Procedure, shortened: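 hGLP-1R/CHO-K1 cells in HBSS with 0.1% BSA, 20 mM HEPES, 0.1 mM IBMX and 0.2 mM RO20-1724 exposed to compound plus forskolin (400 μM stock) for 1 h at 37 °C. Intracellular cAMP read by HTRF (cAMP-d2/anti-cAMP cryptate, 1 h at room temperature).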

[1] = CHO-K1, hGLP-1R/CHO-K1 cells, cAMP, 100% = human GLP-1 (7-36) at 2 nM, 0% = DMSO only, read-out: Emax(%)
[2] = hGLP-1R/CHO-K1 cells, cAMP increase, 37° C. 1 hour
[3] = CHO-K1, maximum effect, cAMP increase in GLP-1 R/CHO-K1 cells, 2 nM human GLP-1 (7-36) = 100%, DMSO only = 0%, read-out: Emax
[4] = cAMP increase in GLP-1 R/CHO-K1 cells, 2 nM human GLP-1 (7-36) = 100%, DMSO only = 0%

T1 sequence (P43220 24-463): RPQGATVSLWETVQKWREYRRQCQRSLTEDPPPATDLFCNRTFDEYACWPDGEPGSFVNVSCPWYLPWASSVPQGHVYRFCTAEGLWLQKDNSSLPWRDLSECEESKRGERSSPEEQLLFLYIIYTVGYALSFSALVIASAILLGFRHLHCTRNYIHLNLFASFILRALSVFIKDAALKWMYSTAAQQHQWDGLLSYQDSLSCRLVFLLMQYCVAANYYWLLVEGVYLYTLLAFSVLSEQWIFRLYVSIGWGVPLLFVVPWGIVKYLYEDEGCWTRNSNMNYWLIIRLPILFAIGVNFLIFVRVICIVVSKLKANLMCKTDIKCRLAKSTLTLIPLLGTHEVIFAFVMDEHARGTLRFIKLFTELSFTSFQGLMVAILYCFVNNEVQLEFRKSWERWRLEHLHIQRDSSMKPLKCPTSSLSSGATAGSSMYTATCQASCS

| SMILES | Emax [1] [%] | EC50 [2] [nM] | Emax [3] [%] | EC50 [4] [nM] |
| --- | --- | --- | --- | --- |
| C[C@H]1c2cc(OCc3ccc(Cl)cc3)c(C(F)(F)F)cc2CCN1Cc1nc2ccc(C(=O)O)nc2n1C[C@@H]1CCO1 [Compound I-178] | 111 | 1.97 |  |  |
| Cc1ccc(COc2cc3c(cc2C(F)(F)F)CCN(Cc2nc4ccc(C(=O)O)cc4n2C[C@@H]2CCO2)[C@H]3C)cc1 [Compound I-162] | 106 | 1.37 |  |  |
| C[C@H]1c2cc(OCc3ccccc3Cl)c(C(F)(F)F)cc2CCN1Cc1nc2ccc(C(=O)O)c(F)c2n1C[C@@H]1CCO1 [Compound I-197] | 119 | 1.33 |  |  |
| Cc1cc2c(cc1OCc1ccc(Cl)cc1F)CN(Cc1nc3ccc(C(=O)O)nc3n1C[C@@H]1CCO1)CC2 [Compound I-009] | 81.3 | 27.3 |  |  |
| C[C@H]1c2cc(OCc3c(F)cc(Cl)cc3F)c(C(F)(F)F)cc2CCN1Cc1nc2ccc(C(=O)O)c(F)c2n1C[C@@H]1CCO1 [Compound I-130] | 139 | 0.307 |  |  |
| O=C(O)c1ccc2nc(CN3CCc4cc(C(F)(F)F)c(OCc5ccc(C6CC6)cc5)cc4C3)n(C[C@@H]3CCO3)c2c1 [Compound I-102] | 106 | 5.09 |  |  |
| CCn1ccc(COc2cc3c(cc2C(F)(F)F)CCN(Cc2nc4ccc(C(=O)O)cc4n2C[C@@H]2CCO2)C3)n1 [Compound I-148] | 95 | 32.5 |  |  |
| O=C(O)c1ccc2nc(CN3CCc4cc(C(F)(F)F)c(OCc5ccc(Cl)c(F)c5)cc4C3)n(C[C@@H]3CCO3)c2c1 [Compound I-098] | 120 | 10.9 |  |  |
| O=C(O)c1ccc2nc(CN3CCc4cc(C(F)(F)F)c(OCc5ccc(Cl)cc5F)cc4C3)n(Cc3ncco3)c2c1 [Compound I-052] | 92 | 24.5 |  |  |
| CCn1cncc1Cn1c(CN2CCc3cc(C)c(OCc4ccc(Cl)cc4F)cc3C2)nc2ccc(C(=O)O)cc21 [Compound I-002] | 92.2 | 43.3 |  |  |
| O=C(O)c1ccc2nc(CN3CCc4cc(C(F)(F)F)c(OCc5ccc(F)c(F)c5)cc4C3)n(C[C@@H]3CCO3)c2c1 [Compound I-093] | 111 | 16.6 |  |  |
| C[C@H]1c2cc(OCc3ccc(Cl)cc3F)c(C(F)(F)F)cc2CCN1Cc1nc2ccc(C(=O)O)nc2n1C[C@@H]1CCO1 [Compound I-037] | 126 | 0.663 |  |  |
| COc1cc(Cl)ccc1COc1cc2c(cc1C(F)(F)F)CCN(Cc1nc3ccc(C(=O)O)cc3n1C[C@@H]1CCO1)[C@H]2C [Compound I-164] | 104 | 0.302 |  |  |
| O=C(O)c1ccc2nc(CN3CCc4cc(C(F)F)c(OCc5ccc(Cl)cc5F)cc4C3)n(C[C@@H]3CCO3)c2c1 [Compound I-027] | 80 | 9.48 |  |  |
| Cc1cc(Cl)ccc1COc1cc2c(cc1C(F)(F)F)CCN(Cc1nc3ccc(C(=O)O)cc3n1C[C@@H]1CCO1)C2 [Compound I-140] | 96 | 18 |  |  |
| COc1ccc(COc2cc3c(cc2C(F)(F)F)CCN(Cc2nc4ccc(C(=O)O)cc4n2C[C@@H]2CCO2)[C@H]3C)cc1 [Compound I-171] | 98.7 | 2.37 |  |  |
| O=C(O)c1ccc2nc(CN3CCc4cc(C(F)(F)F)c(OCc5ccccc5-c5ccccc5)cc4C3)n(C[C@@H]3CCO3)c2c1 [Compound I-088] | 147 | 7.81 |  |  |
| C[C@H]1c2cc(OCc3ccc(C#N)cc3F)c(C(F)(F)F)cc2CCN1Cc1nc2ccc(C(=O)O)nc2n1C[C@@H]1CCO1 [Compound I-186] | 111 | 3.28 |  |  |
| O=C(O)c1ccc2nc(CN3CCc4cc(C(F)(F)F)c(OCc5ccc(Cl)cc5F)cc4C3)n(C[C@H]3CCO3)c2c1 [Compound I-042] | 95 | 73.8 |  |  |
| C[C@H]1c2cc(OCc3cc(F)c(Cl)cc3F)c(C(F)(F)F)cc2CCN1Cc1nc2ccc(C(=O)O)cc2n1C[C@@H]1CCO1 [Compound I-169] | 101 | 1.21 |  |  |
| C[C@H]1c2cc(OCc3cc(F)c(Cl)cc3F)c(C(F)(F)F)cc2CCN1Cc1nc2ccc(C(=O)O)nc2n1C[C@@H]1CCO1 [Compound I-185] | 106 | 2.2 |  |  |
| O=C(O)c1ccc2nc(Cc3ccc4cc(C(F)(F)F)c(OCc5ccc(Cl)cc5F)nc4c3)n(C[C@@H]3CCO3)c2c1 [Compound I-046] | 118 |  |  |  |
| C[C@H]1c2cc(OCc3c(F)cc(Cl)cc3F)c(C(F)(F)F)cc2CCN1Cc1nc2ccc(C(=O)O)nc2n1C[C@@H]1CCO1 [Compound I-115] | 124 | 0.538 |  |  |

Next, values leading:

| Emax [1] [%] | EC50 [2] [nM] | Emax [3] [%] | EC50 [4] [nM] | SMILES |
| --- | --- | --- | --- | --- |
| 117 | 0.509 |  |  | Cc1csc(COc2cc3c(cc2C(F)(F)F)CCN(Cc2nc4c(F)cc(C(=O)O)cc4n2C[C@@H]2CCO2)[C@H]3C)n1 [Compound I-204] |
|  |  | 115 | 0.444 | COc1ccc(COc2nc3c(cc2C(F)(F)F)CCN(Cc2nc4ccc(C(=O)O)nc4n2C[C@@H]2CCO2)[C@H]3C)cc1 [Compound I-286] |
|  |  | 114 | 0.421 | C[C@H]1c2nc(OCc3ccc(C4CC4)cc3)c(C(F)(F)F)cc2CCN1Cc1nc2c(F)cc(C(=O)O)cc2n1C[C@@H]1CCO1 [Compound I-366] |
|  |  | 107 | 0.949 | O=C(O)c1ccc2nc(CN3CCc4cc(C(F)(F)F)c(OCc5cc(F)c(Cl)cc5F)nc4C3)n(C[C@@H]3CCO3)c2n1 [Compound I-305] |
|  |  | 100 | 0.0208 | COc1cc(C(=O)O)cc2c1nc(CN1CCc3cc(C(F)(F)F)c(OCc4ccc(Cl)cc4)nc3[C@@H]1C)n2C[C@@H]1CCO1 [Compound I-374] |
|  |  | 94.3 | 2.1 | C[C@H]1c2cc(OCc3ccc(Cl)cc3F)c(Cl)cc2CCN1Cc1nc2ccc(C(=O)O)nc2n1C[C@@H]1CCO1 [Compound I-315] |
| 103 | 0.181 |  |  | C[C@H]1c2cc(OCc3ccc(Cl)cc3Cl)c(C(F)(F)F)cc2CCN1Cc1nc2c(F)cc(C(=O)O)cc2n1C[C@@H]1CCO1 [Compound I-211] |
|  |  | 121 | 0.156 | C[C@H]1c2nc(OCc3ccc(Cl)cc3Cl)c(C(F)(F)F)cc2CCN1Cc1nc2ccc(C(=O)O)nc2n1C[C@@H]1CCO1 [Compound I-351] |
| 110 | 0.511 |  |  | Cc1ccc(COc2cc3c(cc2C(F)(F)F)CCN(Cc2nc4c(F)cc(C(=O)O)cc4n2C[C@@H]2CCO2)[C@H]3C)cc1 [Compound I-206] |
| 104 | 1 |  |  | C[C@H]1c2cc(OCc3ccc(OC(F)F)cc3F)c(C(F)(F)F)cc2CCN1Cc1nc2c(F)cc(C(=O)O)cc2n1C[C@@H]1CCO1 [Compound I-212] |
|  |  | 134 | 0.104 | C[C@H]1c2nc(OCc3c(F)cc(Cl)cc3F)c(C(F)(F)F)cc2CCN1Cc1nc2ccc(C(=O)O)cc2n1C[C@@H]1CCO1 [Compound I-259] |
|  |  | 108 | 0.382 | O=C(O)c1cc(F)c2nc(CN3CCc4cc(C(F)(F)F)c(OCc5ccc(Cl)cc5)nc4C3)n(C[C@@H]3CCO3)c2c1 [Compound I-380] |
|  |  | 121 | 0.146 | C[C@H]1c2nc(OCc3c(F)cc(F)cc3F)c(C(F)(F)F)cc2CCN1Cc1nc2ccc(C(=O)O)nc2n1C[C@@H]1CCO1 [Compound I-292] |
|  |  | 116 | 0.69 | O=C(O)c1ccc2nc(CN3CCc4cc(C(F)(F)F)c(OCc5ccc(OC(F)F)cc5F)nc4C3)n(C[C@@H]3CCO3)c2c1 [Compound I-270] |
|  |  | 120 | 0.0864 | C[C@H]1c2nc(OCc3c(F)cc(Cl)cc3F)c(C(F)(F)F)cc2CCN1Cc1nc2ccc(C(=O)O)nc2n1C[C@@H]1CCO1 [Compound I-291] |
|  |  | 117 | 0.311 | C[C@H]1c2nc(OCc3ccc(OC(F)F)cc3F)c(C(F)(F)F)cc2CCN1Cc1nc2ccc(C(=O)O)nc2n1C[C@@H]1CCO1 [Compound I-289] |
|  |  | 109 | 0.693 | COc1cc(C(=O)O)cc2c1nc(CN1CCc3cc(C(F)(F)F)c(OCc4ccccc4Cl)cc3[C@@H]1C)n2C[C@@H]1CCO1 [Compound I-230] |
|  |  | 109 | 0.354 | COc1cc(C(=O)O)cc2c1nc(CN1CCc3cc(C(F)(F)F)c(OCc4cc(F)c(Cl)cc4F)cc3[C@@H]1C)n2C[C@@H]1CCO1 [Compound I-234] |
|  |  | 115 | 0.869 | O=C(O)c1ccc2nc(CN3CCc4cc(C(F)(F)F)c(OCc5ccc(Cl)cc5Cl)nc4C3)n(C[C@@H]3CCO3)c2n1 [Compound I-304] |
| 109 | 0.447 |  |  | C[C@H]1c2cc(OCc3ccc(Cl)cc3)c(C(F)(F)F)cc2CCN1Cc1nc2c(F)cc(C(=O)O)cc2n1C[C@@H]1CCO1 [Compound I-205] |
|  |  | 121 | 0.164 | Cc1ccc(COc2nc3c(cc2C(F)(F)F)CCN(Cc2nc4ccc(C(=O)O)cc4n2C[C@@H]2CCO2)[C@H]3C)cc1 [Compound I-250] |
|  |  | 107 | 3.94 | O=C(O)c1ccc2nc(CN3CCc4cc(C(F)(F)F)c(OCc5ccc(F)cc5)nc4C3)n(C[C@@H]3CCO3)c2c1 [Compound I-272] |
|  |  | 106 | 0.36 | COc1cc(C(=O)O)cc2c1nc(CN1CCc3cc(C(F)(F)F)c(OCc4c(F)cc(F)cc4F)cc3[C@@H]1C)n2C[C@@H]1CCO1 [Compound I-238] |
|  |  | 129 | 0.096 | COc1cc(C(=O)O)cc2c1nc(CN1CCc3cc(Cl)c(OCc4ccc(Cl)cc4Cl)cc3[C@@H]1C)n2C[C@@H]1CCO1 [Compound I-345] |
|  |  | 110 | 1.76 | O=C(O)c1ccc2nc(CN3CCc4cc(C(F)(F)F)c(OCc5ccc(Cl)cc5)nc4C3)n(C[C@@H]3CCO3)c2n1 [Compound I-302] |
|  |  | 107 | 0.0214 | COc1cc(Cl)ccc1COc1nc2c(cc1C(F)(F)F)CCN(Cc1nc3c(F)cc(C(=O)O)cc3n1C[C@@H]1CCO1)[C@H]2C [Compound I-367] |
